We go through 20 compounds from ChEMBL document CHEMBL1139959, “Optimization of triaryl bis-sulfones as cannabinoid-2 receptor ligands” (Bioorg Med Chem Lett, 2007).

Sequence of Cannabinoid receptor 2 (Homo sapiens) (P34972 whole entry, looked up): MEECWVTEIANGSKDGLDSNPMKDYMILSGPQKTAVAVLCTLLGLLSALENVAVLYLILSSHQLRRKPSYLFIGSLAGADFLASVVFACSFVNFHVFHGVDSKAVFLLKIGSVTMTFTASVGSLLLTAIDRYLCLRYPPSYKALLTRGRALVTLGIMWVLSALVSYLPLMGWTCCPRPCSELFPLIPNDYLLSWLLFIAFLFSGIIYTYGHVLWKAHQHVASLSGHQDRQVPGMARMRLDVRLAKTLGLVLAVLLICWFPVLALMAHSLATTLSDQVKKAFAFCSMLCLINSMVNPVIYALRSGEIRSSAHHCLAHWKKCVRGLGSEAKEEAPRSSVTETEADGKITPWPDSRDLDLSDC

This assay addresses Cannabinoid receptor 2 (Homo sapiens) (UniProt P34972). The experiment in a line: Binding affinity to CB2 receptor.
For orientation: Ki means the dissociation constant of the complex between target and ligand, obtained from inhibition or displacement. Low values mean tighter binding, high ones weaker binding. In turn, `C[C@H](NS(=O)(=O)C(F)(F)F)c1ccc(S(=O)(=O)c2ccc(Cl)cc2S(=O)(=O)c2c(N)cccc2F)cc1` returned an inhibitory constant (Ki) of 4.1 nM. In other words, the single-digit nanomolar range. Then `C[C@H](NCCC(F)(F)F)c1ccc(S(=O)(=O)c2ccc(Cl)cc2S(=O)(=O)c2ccccc2F)cc1`, with 17 nM. Compound `C[C@H](NS(C)(=O)=O)c1ccc(S(=O)(=O)c2ccc(Cl)cc2S(=O)(=O)c2ccccn2)cc1` returned an inhibition constant Ki of 2.9 nM.

Turning to `C[C@H](NS(C)(=O)=O)c1ccc(S(=O)(=O)c2ccc(Cl)cc2S(=O)(=O)c2cccc[n+]2[O-])cc1`, the affinity corresponds to a Ki of 119 nM. The compound `C[C@H](NS(=O)(=O)C(F)(F)F)c1ccc(S(=O)(=O)c2ccc(C(F)(F)F)cc2S(=O)(=O)c2ccccc2F)cc1` showed a Ki of 2.5 nM. As to `C[C@H](NCC(F)(F)F)c1ccc(S(=O)(=O)c2ccc(Cl)cc2S(=O)(=O)c2ccccc2F)cc1`, the inhibition constant (Ki) was found to be 7 nM.

With `C[C@H](NS(=O)(=O)C(F)(F)F)c1ccc(S(=O)(=O)c2ccccc2S(=O)(=O)c2ccccc2F)cc1`, the inhibition constant Ki is 25 nM. As for `C[C@H](NS(=O)(=O)C(F)(F)F)c1ccc(S(=O)(=O)c2ccc(O)cc2S(=O)(=O)c2ccccc2F)cc1`, the figure is 1.3 nM. As for `CNS(=O)(=O)c1cc(Cl)ccc1S(=O)(=O)c1ccc([C@H](C)NS(C)(=O)=O)cc1`, the figure is 1250 nM; as for `C[C@H](N)c1ccc(S(=O)(=O)c2ccc(Cl)cc2S(=O)(=O)c2ccccc2F)cc1`, 3950 nM; as for `C[C@H](NS(=O)(=O)C(F)(F)F)c1ccc(S(=O)(=O)c2ccc(Cl)cc2S(=O)(=O)c2c(F)cccc2N2CCOCC2)cc1`, 140 nM. Compound `C[C@H](NS(=O)(=O)C(F)(F)F)c1ccc(S(=O)(=O)c2ccc(OC(F)(F)F)cc2S(=O)(=O)c2ccccc2F)cc1` had an inhibition constant Ki of 5 nM.

`C[C@H](NS(C)(=O)=O)c1ccc(S(=O)(=O)c2ccc(Cl)cc2S(=O)(=O)c2ccccc2F)cc1`: the Ki is 1.3 nM. On to `CCCS(=O)(=O)c1cc(Cl)ccc1S(=O)(=O)c1ccc([C@H](C)NS(C)(=O)=O)cc1`, for which the Ki is 308 nM. In the case of `C[C@H](NS(C)(=O)=O)c1ccc(S(=O)(=O)c2ccc(Cl)cc2S(=O)(=O)c2cccc3cccnc23)cc1`, the inhibitory constant (Ki) stood at 204 nM. In turn, `CNc1cccc(F)c1S(=O)(=O)c1cc(Cl)ccc1S(=O)(=O)c1ccc([C@H](C)NS(=O)(=O)C(F)(F)F)cc1` gave an inhibitory constant (Ki) of 22 nM. This Ki lies about 9.3-fold lower than the previous one.

For `C[C@H](NC(=O)C(F)(F)F)c1ccc(S(=O)(=O)c2ccc(Cl)cc2S(=O)(=O)c2ccccc2F)cc1`, the Ki worked out at 3.7 nM.

Compound `C[C@H](NS(=O)(=O)C(F)(F)F)c1ccc(S(=O)(=O)c2ccc(N3CCNCC3)cc2S(=O)(=O)c2ccccc2F)cc1` yielded a Ki of 1100 nM. This Ki lies about 300-fold higher than the previous one. As for `C[C@H](NS(=O)(=O)C(F)(F)F)c1ccc(S(=O)(=O)c2ccc(N)cc2S(=O)(=O)c2ccccc2F)cc1`, the figure is 10 nM; as for `C[C@H](NS(C)(=O)=O)c1ccc(S(=O)(=O)c2ccc(Cl)cc2S(=O)(=O)N(C)C)cc1`, 1270 nM.
